Experimental data published in paper PMC11859184, “Synthesis and Evaluation of ^68Ga- and ^177Lu-Labeled [diF-Pro^14]Bombesin(6−14) Analogs for Detection and Radioligand Therapy of Gastrin-Releasing Peptide Receptor-Expressing Cancer” (Pharmaceuticals, 2025).
Like-named read-outs stand apart in the source and are kept apart here.

Test: Ex vivo biodistribution of 177Lu-labeled ligands in PC-3 tumor-bearing mice
Conditions: mouse, intravenous; for tissue uptake at 72 h: 72 h pi; for tissue uptake at 120 h: 120 h pi; for tissue uptake at 1 h: 1 h pi; for tissue uptake at 4 h: 4 h pi; for tissue uptake at 24 h: 24 h pi
Procedure: SPECT/CT imaging was conducted using an MI Labs (Houten, The Netherlands) U-SPECT-II/CT scanner with a custom-made ultra-high sensitivity big mouse collimator (2 mm pinhole size) following published procedure. The experiments were obtained in accordance with the same protocol established in the PET/CT imaging and ex vivo biodistributions section. The mice were used for SPECT/CT imaging and ex vivo biodistributions studies once the tumors reached a diameter of 5–8 mm. PC-3 tumor-bearing mice were sedated (2.5% isoflurane in O2) and injected with 31.4–36.9 MBq of the ^177Lu-labeled ligand through a lateral caudal tail vein. The mouse was imaged at 1, 4, 24, 72, and 120 h pi. At each time point, a 5 min CT scan was performed with 615 μA and 60 kV parameters for localization and attenuation, followed by two 30 min static SPECT scans in list mode with an energy window centered around 208 keV. The U-SPECT II software was used to reconstruct data, and the images were decay corrected to the time of injection with PMOD v 3.402 (PMOD Technologies GmbH, Fallanden, Switzerland).
For ex vivo biodistribution studies, the mice were injected with ~3–5 MBq of the ^177Lu-labeled ligand (n = 5). At 1, 4, 24, 72, and 120 h post-injection, the mice were anesthetized with 2% isoflurane, euthanized by CO2 inhalation, and the tissues/organs of interest were […] for radioactivity counting. The blocking study was performed at 1 h pi via co-injection of the ^177Lu-labeled ligand with 100 μg of [D-Phe^6,Leu-NHEt^13,des-Met^14]Bombesin(6–14).

[1] = heart, n = 5, read-out: Heart uptake
[2] = kidneys, n = 5, read-out: Kidneys uptake
[3] = large intestine, n = 5, read-out: Large intestine uptake
[4] = liver, n = 5, read-out: Liver uptake
[5] = lungs, n = 5, read-out: Lungs uptake
[6] = muscle, n = 5, read-out: Muscle uptake
[7] = pancreas, n = 5, read-out: Pancreas uptake
[8] = small intestine, n = 5, read-out: Small intestine uptake
[9] = spleen, n = 5, read-out: Spleen uptake
[10] = stomach, n = 5, read-out: Stomach uptake
[11] = testes, n = 5, read-out: Testes uptake

- tissue uptake at 72 h [1]: 0.01 %ID/g
- tissue uptake at 120 h [1]: 0.01 %ID/g
- tissue uptake at 1 h (kidneys, 100 ug, blocked (100 µg GRPR antagonist co-injected), read-out: Kidneys uptake): 3.8 ± 0.85 %ID/g
- tissue uptake at 1 h [2]: 3.62 ± 0.86 %ID/g
- tissue uptake at 4 h [2]: 2.85 ± 0.29 %ID/g
- tissue uptake at 24 h [2]: 1.06 ± 0.22 %ID/g
- tissue uptake at 72 h [2]: 0.33 ± 0.03 %ID/g
- tissue uptake at 120 h [2]: 0.15 ± 0.04 %ID/g
- tissue uptake at 1 h (large intestine, 100 ug, blocked (100 µg GRPR antagonist co-injected), read-out: Large intestine uptake): 0.22 ± 0.04 %ID/g
- tissue uptake at 1 h [3]: 0.49 ± 0.31 %ID/g
- tissue uptake at 4 h [3]: 0.68 ± 0.12 %ID/g
- tissue uptake at 24 h [3]: 0.43 ± 0.13 %ID/g
- tissue uptake at 72 h [3]: 0.32 ± 0.14 %ID/g
- tissue uptake at 120 h [3]: 0.05 ± 0.02 %ID/g
- tissue uptake at 1 h (liver, 100 ug, blocked (100 µg GRPR antagonist co-injected), read-out: Liver uptake): 0.27 ± 0.03 %ID/g
- tissue uptake at 1 h [4]: 0.47 ± 0.19 %ID/g
- tissue uptake at 4 h [4]: 0.27 ± 0.06 %ID/g
- tissue uptake at 24 h [4]: 0.14 ± 0.07 %ID/g
- tissue uptake at 72 h [4]: 0.06 ± 0.01 %ID/g
- tissue uptake at 120 h [4]: 0.07 ± 0.02 %ID/g
- tissue uptake at 1 h (lungs, 100 ug, blocked (100 µg GRPR antagonist co-injected), read-out: Lungs uptake): 0.54 ± 0.17 %ID/g
- tissue uptake at 1 h [5]: 0.57 ± 0.18 %ID/g
- tissue uptake at 4 h [5]: 0.15 ± 0.04 %ID/g
- tissue uptake at 24 h [5]: 0.06 ± 0.02 %ID/g
- tissue uptake at 72 h [5]: 0.03 ± 0.01 %ID/g
- tissue uptake at 120 h [5]: 0.02 %ID/g
- tissue uptake at 1 h (muscle, 100 ug, blocked (100 µg GRPR antagonist co-injected), read-out: Muscle uptake): 0.15 ± 0.05 %ID/g
- tissue uptake at 1 h [6]: 0.13 ± 0.05 %ID/g
- tissue uptake at 4 h [6]: 0.05 ± 0.01 %ID/g
- tissue uptake at 24 h [6]: 0.01 %ID/g
- tissue uptake at 72 h [6]: 0.01 %ID/g
- tissue uptake at 1 h (pancreas, 100 ug, blocked (100 µg GRPR antagonist co-injected), read-out: Pancreas uptake): 0.51 ± 0.12 %ID/g
- tissue uptake at 1 h [7]: 2.64 ± 0.63 %ID/g
- tissue uptake at 4 h [7]: 1.71 ± 0.08 %ID/g
- tissue uptake at 24 h [7]: 1.04 ± 0.19 %ID/g
- tissue uptake at 72 h [7]: 0.35 ± 0.08 %ID/g
- tissue uptake at 120 h [7]: 0.11 ± 0.01 %ID/g
- tissue uptake at 1 h (small intestine, 100 ug, blocked (100 µg GRPR antagonist co-injected), read-out: Small intestine uptake): 0.23 ± 0.06 %ID/g
- tissue uptake at 1 h [8]: 0.67 ± 0.16 %ID/g
- tissue uptake at 4 h [8]: 0.26 ± 0.04 %ID/g
- tissue uptake at 24 h [8]: 0.13 ± 0.01 %ID/g
- tissue uptake at 72 h [8]: 0.04 ± 0.01 %ID/g
- tissue uptake at 120 h [8]: 0.02 ± 0.01 %ID/g
- tissue uptake at 1 h (spleen, 100 ug, blocked (100 µg GRPR antagonist co-injected), read-out: Spleen uptake): 0.2 ± 0.06 %ID/g
- tissue uptake at 1 h [9]: 0.46 ± 0.2 %ID/g
- tissue uptake at 4 h [9]: 0.13 ± 0.03 %ID/g
- tissue uptake at 24 h [9]: 0.09 ± 0.02 %ID/g
- tissue uptake at 72 h [9]: 0.07 ± 0.02 %ID/g
- tissue uptake at 120 h [9]: 0.05 ± 0.01 %ID/g
- tissue uptake at 1 h (stomach, 100 ug, blocked (100 µg GRPR antagonist co-injected), read-out: Stomach uptake): 0.08 ± 0.03 %ID/g
- tissue uptake at 1 h [10]: 0.29 ± 0.06 %ID/g
- tissue uptake at 4 h [10]: 1.2 ± 1.55 %ID/g
- tissue uptake at 24 h [10]: 0.12 ± 0.05 %ID/g
- tissue uptake at 72 h [10]: 0.07 ± 0.02 %ID/g
- tissue uptake at 120 h [10]: 0.03 ± 0.01 %ID/g
- tissue uptake at 1 h (testes, 100 ug, blocked (100 µg GRPR antagonist co-injected), read-out: Testes uptake): 0.14 ± 0.05 %ID/g
- tissue uptake at 1 h [11]: 0.18 ± 0.03 %ID/g
- tissue uptake at 4 h [11]: 0.04 ± 0.01 %ID/g
- tissue uptake at 24 h [11]: 0.02 %ID/g
- tissue uptake at 72 h [11]: 0.02 ± 0.01 %ID/g
- tissue uptake at 120 h [11]: 0.01 ± 0.01 %ID/g
SMILES: CC(C)C[C@H](NC(=O)[C@H](Cc1cnc[nH]1)N(C)C(=O)CNC(=O)[C@@H](NC(=O)[C@H](C)NC(=O)[C@H](Cc1c[nH]c2ccccc12)NC(=O)[C@H](CCC(N)=O)NC(=O)[C@@H](Cc1ccccc1)NC(=O)CN1CCC(NC(=O)CN2CCN(CC(=O)O)CCN(CC(=O)O)CCN(CC(=O)O)CC2)CC1)C(C)(C)C)C(=O)N1CC(F)(F)C[C@H]1C(N)=O [[^177Lu]Lu-LW02060, metal not drawn]
